US5721359A, “Crystalline ceftiofur free acid” (Pharmacia & Upjohn Company, priority 1995, dated 1998)
“Also recorded” adds a separate entry of the source. Counter-ions that a name gives are not always drawn. Like-named read-outs stand apart in the source and are kept apart here.

Columns and labels:
[1] = design: species or system cattle; settings: bovine, in vivo, sc, 4.4 mg/kg
Method: Cattle were administered a single subcutaneous dose (4.4 mg/kg body weight) of crystalline ceftiofur free acid and amorphous ceftiofur free acid (both prepared and then formulated as described above in Examples 1, 3 and 4). The concentration of plasma ceftiofur and desfuroylceftiofur related metabolites were determined over time for 120 hours. The primary decision criteria (that most related to efficacy) was considered to be the time that the ceftiofur metabolite concentrations remained above 0.2 mcg/ml (t>0.2). Less important parameters calculated included "area under the concentration-time curve" (AUC) for each treatment and time to maximum concentrations (tmax).
The results are shown graphically in FIG. 7 below by plotting plasma concentration of desfuroylceftiofur acetamide (DCA) versus time using average data for 6 animals/treatment. […] This is especially important in light of the two forms obtaining statistically equivalent peak concentrations (9.1 mcg/ml for the amorphous ceftiofur free acid versus 7.3 mcg/ml for the crystalline ceftiofur free acid).

[2] = Dissolution rate (Table II, FIG. 9); type: physicochemical; settings: shown graphically in FIG. 9
Excerpt: "Dissolution rate" is the kinetic translation of solubility for a well stirred system under sink conditions.

Solubility = type: physicochemical; settings: for Solubility-pH7: pH 7; for solubility in aqueous solvents, comparison crystalline free acid vs crystalline hydrochloride: in words
Excerpt: "Solubility" is a direct consequence of a solid's structure and the intermolecular forces holding the solid together and is defined as the mount of drug which exists in solution when equilibrium is achieved between solution and solid state material.

In vivo release = settings: for In Vivo Release: Table II; for sustained release properties in vivo: in words
Excerpt: "In-vivo release" is the biological consequence of the dissolution rate of a compound which is characterized by time to maximum concentration and the maximum concentration in the biological fluid of interest.

Hygroscopity = type: physicochemical; settings: for Hygroscopity: Table II
Excerpt: "Hygroscopity" is the ability of a compound to pick up moisture from or yield moisture to the atmosphere with changes in relative humidity.

[3] = In vitro dissolution of ceftiofur oil suspension formulations (Example 7); type: physicochemical; settings: 100 mg/ml oil formulation, 500 ml pH 7 aqueous media, 50 RPM paddle, FIG. 6
Method: 100 mg samples of crystalline ceftiofur free acid, amorphous ceftiofur free acid (prepared as described in Example 1) and crystalline ceftiofur hydrochloride, which were all prepared as oil formulations as described in Example 4 above, were loaded into teflon dissolution cells and sealed with a constant surface area dialysis membrane. The loaded cells were placed in a standard dissolution apparatus containing 500 ml of pH 7 aqueous dissolution media which was stirred by a 50 RPM rotating paddle.
The results obtained are shown below in FIG. 6 below.

[4] = Stability in bulk, aqueous and other formulations; type: physicochemical
[5] = Comparison of time above minimum plasma concentration for ceftiofur derivatives; type: in vivo
Excerpt: Using the criteria for sustained release as the time which plasma concentrations remain above some minimum concentration (t>0.2), a comparison of various derivatives of ceftiofur can be made. […] This difference is of practical and statistical significance.

[6] = Plasma disposition of oil suspension of ceftiofur crystalline free acid vs aqueous solution of ceftiofur sodium in cattle (Example 6); type: in vivo, cattle (Holstein calves); settings: SC; for t>0.2 (time ceftiofur metabolite concentrations remained above 0.2 μg/mL): 2.2 mg ceftiofur activity/kg
Method: Sixteen Holstein calves were administered ceftiofur crystalline free acid in an oil suspension (100 mg/mL) or ceftiofur sodium (NAXCEL® Sterile Powder) as an aqueous solution (50 mg/mL) subcutaneously (SC) in a crossover study (each calf received each treatment), with a two-week washout period between doses (2.2 mg ceftiofur activity/kg body weight). Blood samples were obtained serially for 120 hours after drug administration for analysis of ceftiofur and metabolites (measured as desfuroylceftiofur acetamide by HPLC). The primary decision variable was the time ceftiofur metabolite concentrations remained above 0.2 μg/mL (t>0.2), with secondary decision variables being "relative area under the concentration-time curve" (AUC) of the treatments and injection site irritancy assessed antemortem by visual and manual inspection of the injection site over time. Both t>0.2 and AUC were calculated using both the predictive pharmacokinetic equation method and the direct graphical method of trapezoids (AUC) and log-linear interpolation (t>0.2).

[7] = Processing (micronization); type: physicochemical; settings: Table II, cell wraps: 'Difficult to micronize'
[8] = Plasma disposition of crystalline ceftiofur hydrochloride and crystalline ceftiofur free acid oil suspensions in cattle (Example 9); type: in vivo; settings: SC, 2.2 mg/kg, oil suspension, 16 animals/treatment; separate studies
Method: In separate but similarly designed studies conducted in the same laboratory, crystalline ceftiofur free acid (CFA) and crystalline ceftiofur hydrochloride (HCl) suspensions were administered subcutaneously to cattle at a dose of 2.2 mg/kg body weight. In each experiment, plasma samples were obtained for up to 120 hours after drug administration for determination of ceftiofur and its metabolites. The results are shown graphically in FIG. 8 below by plotting plasma concentration (on a logarithmic scale) versus time using average data for 16 animals/treatment. The primary decision criteria (that most related to efficacy) was considered to be the time that the ceftiofur metabolite concentrations remained above 0.2 mcg/ml (t>0.2). Less important parameters measures included "area under the concentration-time curve" (AUC) for each treatment and time to peak and peak concentrations.

[9] = Plasma disposition of aqueous suspensions of ceftiofur crystalline free acid in cattle (Example 5); type: in vivo, cattle (Holstein calves); settings: aqueous suspension 100 mg/mL, single dose 1.1 mg ceftiofur activity/kg
Method: Sixteen Holstein calves were administered ceftiofur crystalline free acid in an aqueous suspension (100 mg/mL) by the intramuscular (IM) or subcutaneous (SC) route of administration as a single dose of 1.1 mg ceftiofur activity/kg in a crossover study (each calf got each treatment), with a two-week washout between doses. Blood samples were obtained serially for 120 hours for analysis of ceftiofur and metabolites (measured as desfuroylceftiofur acetamide by HPLC). The primary decision variable was the time ceftiofur metabolite concentrations remained above 0.2 μg/mL (t>0.2), with secondary decision variables being "relative area under the concentration-time curve" (AUC) of the treatments and injection site irritancy assessed antemortem by visual and manual inspection of the injection sites over time. Both t>0.2 and AUC were calculated using both the predictive pharmacokinetic equation method and the direct graphical method of trapezoids (AUC) and log linear interpolation (t>0.2).

[10] = unstable in 6 weeks (cell wraps over two lines)
[11] = listed as Crystalline Free Acid

CON=C(C(=O)NC1C(=O)N2C(C(=O)O)=C(CSC(=O)c3ccco3)CSC12)c1csc(N)n1 (stereo not shown) [amorphous ceftiofur free acid, reference compound]
AUC (area under the concentration-time curve) [1]: 70 µg·h/mL | peak concentrations [1]: 9.1 µg/mL | t>0.2 (time metabolite concentrations remained above 0.2 mcg/ml) [1]: 41 h | time to peak concentration (tmax) [1]: 2 h | Dissolution Rate ([2]; listed as Amorphous Free Acid): Fast | Solubility-pH7 (Solubility; listed as Amorphous Free Acid): ≈ 100 mg/mL | In Vivo Release (In vivo release; listed as Amorphous Free Acid): Fast | Hygroscopity (Hygroscopity; listed as Amorphous Free Acid): High | release from the oil formulation into the dissolution media [3]: very fast release | Stability in Aqueous Formulations (>90% initial potency) [4, 10]: Unstable

CO/N=C(\C(=O)N[C@@H]1C(=O)N2C(C(=O)O)=C(CSC(=O)c3ccco3)CS[C@H]12)c1csc(N)n1 [ceftiofur sodium]
rank order of time above the selected minimum plasma concentration (t>0.2) ([5]; aqueous formulations): sodium<crystalline hydrochloride<crystalline free acid<zinc | rank order of duration above minimum plasma concentration (t>0.2) ([5]; oil formulations): sodium<crystallinehydrochloride<zinc<crystalline free acid | t>0.2 (time ceftiofur metabolite concentrations remained above 0.2 μg/mL) ([6]; aqueous solution 50 mg/mL): 45.50 h

CON=C(C(=O)NC1C(=O)N2C(C(=O)O)=C(CSC(=O)c3ccco3)CSC12)c1csc(N)n1 (stereo not shown) [crystalline ceftiofur free acid]
Processing (micronize) [7, 11]: Micronizes easier | AUC (area under the concentration-time curve) [1]: 183 µg·h/mL | AUC compared with amorphous ceftiofur free acid [1]: more than twice | peak concentrations [1]: 7.3 µg/mL | t>0.2 (time metabolite concentrations remained above 0.2 mcg/ml) [1]: 101 h | time to peak concentration (tmax) [1]: 8 h | Dissolution Rate [2]: slow dissolution rate; also recorded: slower | Dissolution Rate [2, 11]: Slow | solubility in aqueous solvents, comparison crystalline free acid vs crystalline hydrochloride (Solubility): lower solubility in aqueous solvents than its crystalline hydrochloride salt | solubility in non-polar solvents (Solubility; non-polar solvents): insoluble in non-polar solvents | Solubility-pH7 (Solubility; [11]): ≈ 8 mg/mL | solubility in water (Solubility; water): sparingly soluble in water | t>0.2 (time metabolite concentrations remained above 0.2 mcg/ml) [8]: 121.6 h | In Vivo Release (In vivo release; [11]): Prolonged | sustained release properties in vivo (In vivo release): has sustained release properties in vivo | t>0.2 (time ceftiofur metabolite concentrations remained above 0.2 μg/mL) ([9]; IM): 26.98 h | t>0.2 (time ceftiofur metabolite concentrations remained above 0.2 μg/mL) ([9]; SC, P=0.257 vs IM): 30.43 h | Hygroscopity (Hygroscopity; [11]): Low | hygroscopicity relative to crystalline hydrochloride salt and amorphous free acid (Hygroscopity; in words): superior | rank order of time above the selected minimum plasma concentration (t>0.2) ([5]; aqueous formulations): sodium<crystalline hydrochloride<crystalline free acid<zinc | rank order of duration above minimum plasma concentration (t>0.2) ([5]; oil formulations): the longest | terminal phase half-life (absorption phase, flip-flop model) compared with ceftiofur sodium ([6]; crystalline free acid in oil, 2.2 mg/kg): longer | t>0.2 (time ceftiofur metabolite concentrations remained above 0.2 μg/mL) ([6]; oil suspension 100 mg/mL, P<0.0001 vs ceftiofur sodium): 121.58 h | bioavailability compared with aqueous solution of ceftiofur sodium ([6]; oil suspension vs aqueous solution, 2.2 mg/kg, P>0.05): equally bioavailable | release from the oil formulation into the dissolution media [3]: significantly reduced release | Stability in Aqueous Formulations (>90% initial potency) ([4]; >90% initial potency): Stable for 6 months | stability (in bulk and formulations) relative to crystalline hydrochloride salt and amorphous free acid ([4]; in words): superior

CO/N=C(\C(=O)N[C@@H]1C(=O)N2C(C(=O)O)=C(CSC(=O)c3ccco3)CS[C@H]12)c1csc(N)n1 [crystalline ceftiofur hydrochloride, reference compound]
Processing (micronize) [7]: Micronizes easier | Dissolution Rate [2]: Fast | solubility in aqueous solvents, comparison crystalline free acid vs crystalline hydrochloride (Solubility): much greater solubility than the crystalline free acid | solubility (Solubility; pH 7, pH 7, cell of crystalline hydrochloride salt, read-out: Solubility-pH7): ~100 mg/mL | t>0.2 (time metabolite concentrations remained above 0.2 mcg/ml) [8]: 38.5 h | In Vivo Release (In vivo release): Fast | sustained release properties in vivo (In vivo release): does not have useful sustained release properties | Hygroscopity (Hygroscopity): Moderate | release from the oil formulation into the dissolution media [3]: very fast release | Stability in Aqueous Formulations (>90% initial potency) [4, 10]: Unstable

zinc
rank order of duration above minimum plasma concentration (t>0.2) ([5]; in vivo): sodium<crystallinehydrochloride<zinc<crystalline free acid | rank order of time above the selected minimum plasma concentration (t>0.2) ([5]; in vivo): sodium<crystalline hydrochloride<crystalline free acid<zinc
